# Measurements taken from patent publication US5821240A, “Pyrimido[5,4]-dipyrimidines, pharmaceuticals containing them, their use and processes for the preparation thereof” (Dr. Karl Thomae GmbH, priority 1996, dated 1998).
# Experiments:
# [1] = test system: F/L-HERc cells expressing human EGF-R; test: Inhibition of EGF-dependent proliferation of F/L-HERc cells; format: cell-based, murine cell line; human EGF-R; settings: EGF 20 ng/ml, 37° C., 48 hours
# Description: (§1) In this case, an interleukin-3 (IL-3)-dependent cell line of murine origin was used and was genetically modified in such a way that it expresses functional human EGF-R. Proliferation of these cells, which are called F/L-HERc, can therefore be stimulated either by murine IL-3 or by EGF (see von Ruden, T. et al. in EMBO J. 7, 2749-2756 (1988) and Pierce, J. H. et al. in Science 239, […] (1988)).
# (§2) The starting material for the F/L-HERc cells was the cell line FDC-P1 whose preparation has been described by Dexter, T. M. et al. in J. Exp. Med. 152, 1036-1047 (1980). However, it is also possible as an alternative to use other growth factor-dependent cells (see, for example, Pierce, J. H. et al. in Science 239, 628-631 (1988), Shibuya, H. et al. in Cell 70, 57-67 (1992) and Alexander, W. S. et al. in EMBO J. 10, 3683-3691 (1991)). Recombinant retroviruses as described in von Ruden, T. et al., EMBO J. 7, 2749-2756 (1988) Were used for expression of the human EGF-R cDNA (see Ullrich, A. et al. in Nature 309, 418-425 (1984)), with the difference that the retroviral vector LXSN (see Miller, A. D. et al. in BioTechniques 7, 980-990 (1989)) was employed for expression of the EGF-R cDNA, and the line GP+E86 (see Markowitz, D. et al. in J. Virol. 62, 1120-1124 (1988)) was used as packaging cell.
# (§3) F/L-HERc cells were cultivated in RPMI/1640 medium (BioWhittaker), supplemented with 10% fetal calf serum (FCS, Boehringer Mannheim), 2 mM glutamine (BioWhittaker), standard antibiotics and 20 ng/ml human EGF (Promega), at 37° C. and 5% CO2. To investigate the inhibitor activity of the compounds according to the invention, 1.5×10^4 cells were cultivated in the above medium (200 μl) per well in triplicates in 96-well plates, stimulating proliferation of the cells either with EGF (20 ng/ml) or with murine IL-3. The source used for IL-3 was culture supernatants from the cell line X63/0 mIL-3 (see Karasuyama, H. et al. in Eur. J. Immunol. 18, 97-104 (1988)). The compounds according to the invention were dissolved in 100% dimethyl sulphoxide (DMSO) and added in various dilutions to the cultures, with the maximum DMSO concentration being 1%. The cultures were incubated at 37° C. for 48 hours.
# (§4) To determine the inhibitory activity of the compounds according to the invention, the relative cell count was measured in O.D. units using the Cell Titre 96™ AQueous Non-Radioactive Cell Proliferation Assay (Promega). The relative cell count was calculated as a percent of the control (F/L-HERc cells without inhibitor), and the concentration of active substance which inhibits the proliferation of the cells by 50% (IC50) was inferred.
# F/L-HERc cells = test: Inhibition of IL-3-dependent proliferation of F/L-HERc cells; format: cell-based; settings: Mus musculus, murine IL-3, 37° C., 48 hours
# Description: as §1, §2, §3, §4
# [2] = test system: human tumour cell line KB; test: Inhibition of EGF/TGF-alpha-stimulated KB cell proliferation ([3H]-thymidine incorporation); format: cell-based; settings: TGF-alpha 10 ng/ml or EGF 20 ng/ml, serum-free, 60 hours then [3H]-thymidine 16-18 h
# Method: KB cells (purchased from ATCC) were passaged in DMEM (BioWhittaker) in the presence of 10% FCS (Boehringer Mannheim), 50 μM beta-mercaptoethanol and standard antibiotics. The EGF-induced DNA synthesis was determined by measuring the incorporation of radioactively labelled thymidine as indicator of EGF/TGF-alpha-stimulated cell proliferation. To do this, the cells were washed twice and 1500 cells per well were plated out in a 96-well plate in 200 μl of IMDM (BioWhittaker) without serum in the presence of 50 μM beta-mercaptoethanol, standard antibiotics, TGF-alpha [10 ng/ml] or EGF [20 ng/ml] and of various concentrations of the substances according to the invention (triplicates, maximum DMSO concentration 1%, see proliferation t t with F/L-HERc cells). After 60 hours, [^3 H]-thymidine (0.1 μCi in 10 μl) was added for about 16-18 h.
IC50 [2],SMILES,IC50 [1],IC50 (F/L-HERc cells)
100 to 1000 nM,"NCC1CCN(c2ncc3ncnc(Nc4ccc(F)c(Cl)c4)c3n2)CC1 [1(7), 4-[(3-Chloro-4-fluorophenyl)amino]-6-[4-(aminomethyl)-1-piperidinyl]pyrimido[5,4-d]pyrimidine]",8 nM,> 1000 nM
100 to 1000 nM,"COC(=O)N1CCC(Nc2ncc3ncnc(Nc4ccc(F)c(Cl)c4)c3n2)CC1 [1(8), 4-[(3-Chloro-4-fluorophenyl)amino]-6-[1-methoxycarbonyl-4-piperidinylamino]pyrimido[5,4-d]pyrimidine]",3 nM,> 10000 nM
100 to 1000 nM,"Nc1c(Cl)cc(Nc2ncnc3cnc(N[C@H]4CC[C@H](C(=O)O)CC4)nc23)cc1Cl [1(16), 4-[(4-Amino-3,5-dichlorophenyl)amino]-6-[(trans-4-carboxycyclohexyl)amino]pyrimido[5,4-d]pyrimidine]",20 nM,> 1000 nM
100 to 1000 nM,"Nc1c(Cl)cc(Nc2ncnc3cnc(N[C@H]4CC[C@H](C(=O)N5CCOCC5)CC4)nc23)cc1Cl [1(17), 4-[(4-Amino-3,5-dichlorophenyl)amino]-6-[trans-4-(morpholinocarbonyl)cyclohexylamino]pyrimido[5,4-d]pyrimidine]",1 nM,> 1000 nM
100 to 1000 nM,"Nc1c(Cl)cc(Nc2ncnc3cnc(N[C@H]4CC[C@H](C(=O)N5CCCC5)CC4)nc23)cc1Cl [1(18), 4-[(4-Amino-3,5-dichlorophenyl)amino]-6-[trans-4-(pyrrolidinocarbonyl)cyclohexylamino]pyrimido[5,4-d]pyrimidine]",3 nM,> 1000 nM
100 to 1000 nM,"Fc1ccc(Nc2ncnc3cnc(N4CCC(C5CCNCC5)CC4)nc23)cc1Cl [1(19), 4-[(3-Chloro-4-fluorophenyl)amino]-6-[4-(4-piperidinyl)-1-piperidinyl]pyrimido[5,4-d]pyrimidine]",83 nM,> 1000 nM
,"OCc1cccc(Nc2ncnc3cnc(N[C@H]4CC[C@H](O)CC4)nc23)c1 [1(47), 4-[(3-Hydroxymethylphenyl)amino]-6-[trans-4-hydroxycyclohexylamino]pyrimido[5,4-d]pyrimidine]",> 100 nM,> 1000 nM
,"OC1CCN(c2ncc3ncnc(Nc4ccc(F)c(Cl)c4)c3n2)CC1 [1(48), 4-[(3-Chloro-4-fluorophenyl)amino]-6-[4-hydroxy-1-piperidinyl]pyrimido[5,4-d]pyrimidine]",36 nM,> 1000 nM
,"Fc1ccc(Nc2ncnc3cnc(N4CCCCC4)nc23)cc1Cl [1(49), 4-[(3-chloro-4-fluorohenyl)amino]-6-[1-piperidinyl]pyrimido[5,4-d]pyrimidine]",> 1000 nM,> 1000 nM
,"N#CN1CCC(Nc2ncc3ncnc(Nc4ccc(F)c(Cl)c4)c3n2)CC1 [1(50), 4-[(3-Chloro-4-fluorophenyl)amino]-6-[(1-cyano-4-piperidinyl)amino]pyrimido[5,4-d]pyrimidine]",3 nM,> 1000 nM
,"CN1CCC(CNc2ncc3ncnc(Nc4ccc(F)c(Cl)c4)c3n2)CC1 [1(51), 4-[(3-Chloro-4-fluorophenyl)amino]-6-[(1-methyl-4-piperidinyl)methylamino]pyrimido[5,4-d]pyrimidine]",9 nM,> 1000 nM
,"O=C(N1CCOCC1)N1CCN(CCNc2ncc3ncnc(Nc4ccc(F)c(Cl)c4)c3n2)CC1 [1(52), 4-[(3-Chloro-4-fluorophenyl)amino]-6-[2-(4-(morpholinocarbonyl)-1-piperazinyl)ethylamino]pyrimido[5,4-d]pyrimidine]",10 nM,> 1000 nM
,"Nc1ncc2ncnc(Nc3ccc(F)c(Cl)c3)c2n1 [1(53), 4-[(3-Chloro-4-fluorophenyl)amino]-6-aminopyrimido-[5,4-d]pyrimidine]",> 100 nM,> 1000 nM
,"NCCCCCNc1ncc2ncnc(Nc3ccc(F)c(Cl)c3)c2n1 [1(54), 4-[(3-Chloro-4-fluorophenyl)amino]-6-[5-aminopentylamino]pyrimido[5,4-d]pyrimidine]",10 nM,> 1000 nM
,"Fc1ccc(Nc2ncnc3cnc(N4CCCCCC4)nc23)cc1Cl [1(55), 4-[(3-Chloro-4-fluorophenyl)amino]-6-[1-azacycloheptyl]pyrimido[5,4-d]pyrimidine]",40 nM,> 1000 nM
,"NC1CCCN(c2ncc3ncnc(Nc4ccc(F)c(Cl)c4)c3n2)CC1 (centres unmarked) [1(56), 4-[(3-Chloro-4-fluorophenyl)amino]-6-[4-amino-1-azacycloheptyl]pyrimido[5,4-d]pyrimidine]",40 nM,> 1000 nM
,"CC(C)(C)OC(=O)N1CCCC(Nc2ncc3ncnc(Nc4ccc(F)c(Cl)c4)c3n2)CC1 (centres unmarked) [1(57), 4-[(3-chloro-4-fluorophenyl)amino]-6-[1-tert-butyloxy-carbonyl-4-(azacycloheptyl)amino]pyrimido[5,4-d]pyrimidine]",88 nM,> 10000 nM
,"Fc1ccc(Nc2ncnc3cnc(NC4CCCNCC4)nc23)cc1Cl (centres unmarked) [1(58), 4-[(3-Chloro-4-fluorophenyl)amino]-6-[4-(azacycloheptyl)amino]pyrimido[5,4-d]pyrimidine]",4 nM,> 1000 nM
,NC[C@H]1CC[C@H](Nc2ncc3ncnc(Nc4ccc(F)c(Cl)c4)c3n2)CC1 [1(59)],1 nM,> 1000 nM
,"O=C(N[C@H]1CC[C@H](CNc2ncc3ncnc(Nc4ccc(F)c(Cl)c4)c3n2)CC1)OCc1ccccc1 [1(60), 4-[(3-Chloro-4-fluorophenyl)amino]-6-[trans-4-(benzyloxycarbonylamino)cyclohexylmethylamino]pyrimido[5,4-d]pyrimidine]",120 nM,> 10000 nM
,"NCC1CCCN(c2ncc3ncnc(Nc4ccc(F)c(Cl)c4)c3n2)C1 (centres unmarked) [1(61), 4-[(3-Chloro-4-fluorophenyl)amino]-6-[3-aminomethyl-1-piperidinyl]pyrimido[5,4-d]pyrimidine]",50 nM,> 1000 nM
,"Nc1cc(Cl)c(Nc2ncnc3cnc(N[C@H]4CC[C@H](O)CC4)nc23)cc1Cl [1(62), 4-[(4-Amino-2,5-dichlorophenyl)amino]-6-[trans-4-hydroxycyclohexylamino]pyrimido[5,4-d]pyrimidine]",4 nM,> 10000 nM
,"O[C@H]1CC[C@H](Nc2ncc3ncnc(Nc4ccc(-c5ccccc5)cc4)c3n2)CC1 [1(63), 4-[4-Biphenylylamino]-6-[trans-4-hydroxycyclohexylamino]pyrimido[5,4-d]pyrimidine]",> 10000 nM,> 10000 nM
,O[C@H]1CC[C@H](Nc2ncc3ncnc(Nc4cccc(Oc5ccccc5)c4)c3n2)CC1 [1(64)],150 nM,> 10000 nM
,"COC(=O)[C@H]1CC[C@H](Nc2ncc3ncnc(Nc4ccc(F)c(Cl)c4)c3n2)CC1 [Example 1, 4-[(3-Chloro-4-fluorophenyl)amino]-6-[(trans-4-methoxycarbonylcyclohexyl)amino]pyrimido[5,4-d]pyrimidine]",200 nM,> 10000 nM

SMILES,IC50 [2],IC50 [1],IC50 (F/L-HERc cells)
"Fc1ccc(Nc2ncnc3cnc(NC4CN5CCC4CC5)nc23)cc1Cl (racemic) [1(4), (3'RS)-4-[(3-Chloro-4-fluorophenyl)amino]-6-[(3'-quinuclidinyl)amino]pyrimido[5,4-d]pyrimidine]",100 to 1000 nM,15 nM,> 10000 nM
